{
  "source": "paper PMC9663686",
  "about": "“Proline, hydroxyproline, and pyrrolidone carboxylic acid derivatives as highly efficient but reversible transdermal permeation enhancers” (Scientific Reports, 2022)",
  "key": {"[1]": {"test_system": "HaCaT spontaneously immortalized human keratinocytes", "assay": "MTT cell viability assay, HaCaT", "assay_type": "cell-based", "details": "48-h incubation, mean ± SEM, read-out: IC50, HaCaT cells, MTT assay", "from_the_text": "(§1) Next, the in vitro toxicities of the most promising enhancers Pro3 and Pro4, along with the parent Pro2, on spontaneously immortalized human keratinocytes (HaCaT) and Swiss albino mouse embryonic fibroblasts (3T3) were studied (Fig. 3). […] The cellular toxicities were further probed using the 3-(4,5-dimethylthiazol-2-yl)-2,5-diphenyltetrazolium bromide (MTT) uptake assay, based on the transformation of yellow MTT into purple formazan by mitochondrial reductases of living cells. The MTT assay also yielded toxicity values in tens of µM with trends to higher toxicity with a longer acyl chain length (thus also higher lipophilicity) of enhancers (Fig. 3).\n(§2) Cell viability was determined via 3-(4,5-dimethylthiazol-2-yl)-2,5-diphenyltetrazolium bromide (MTT) and neutral red (NR) uptake assays after 48-h incubation with the enhancers (see Supplementary data for details).\n(§3) Both cell lines were cultivated in Dulbecco’s modified Eagle’s medium (DMEM, Lonza, Basel, Switzerland) supplemented with 10% heat-inactivated fetal bovine serum (Merck, Darmstadt, Germany), 10 mM HEPES buffer (Merck, Darmstadt, Germany), and 1% penicillin/streptomycin solution (Lonza, Basel, Switzerland) in 75-cm^2 tissue culture flasks (TPP, Trasadingen, Switzerland) at 37°C in a humidified atmosphere of 5% CO2. Subconfluent cells were sub-cultured every 3-4 days.\nFor toxicity studies, the stock-solutions of studied compounds were prepared in dimethyl sulfoxide (DMSO). […]\nAfter 48-h incubation with the studied enhancer, cell viability was determined via 3-(4,5-dimethylthiazol-2-yl)-2,5-diphenyltetrazolium bromide (MTT) uptake assay based on the transformation of yellow MTT into purple formazan by mitochondrial reductase activity of living cells. […] Afterward, the cell viability was assessed by optical density measurement using a Tecan Infinite 200 M plate reader (Tecan, Grödig, Austria) at λ = 570 nm.\n(§4) The viability of each experimental group was expressed as the percentage of the untreated controls incubated under the same conditions (100%)."}, "3T3 mouse fibroblasts": {"test_system": "3T3 mouse fibroblasts", "assay": "Neutral red (NR) uptake cell viability assay, 3T3", "assay_type": "cell-based", "details": "NIH3T3, 48-h incubation, read-out: IC50, 3T3 cells, NR assay", "from_the_text": "as §1, §2, §3\nFor toxicity studies, the stock-solutions of studied compounds were prepared in dimethyl sulfoxide (DMSO). These stock samples were diluted to the required concentration by the cell culture medium immediately before adding them onto the cells. The amount of DMSO applied to the cells was kept under its intrinsic measurable toxicity limit (below 1 vol.%). […]\nAnother approach used for the toxicity assessment was the neutral red (NR) uptake assay. […] The plates were shaken at rt for 30 min, and the optical density of the soluble NR was measured at λ = 540 nm using a Tecan Infinite 200 M plate reader.\nas §4"}, "human skin": {"test_system": "human skin", "assay": "Diclofenac permeation through human skin in Franz diffusion cells with co-applied enhancer", "assay_type": "in vitro ADME", "details": "for CDERMIS, diclofenac concentration in dermis / CEPIDERMIS, diclofenac concentration in epidermis: 1% enhancer co-applied with 3% DC in 60% PG, after 48 h permeation, mean ± SEM", "experimental": "Donor samples for reversibility and infrared studies contained 1% enhancer in 60% PG. All samples were thoroughly mixed, incubated at 32 °C for 24 h, and, if needed, carefully resuspended before applying on the skin. The effects of the studied enhancers on the solubility of model drugs were assessed as described previously.\nThe permeation-enhancing potencies of the prepared compounds were evaluated on human skin in Franz diffusion cells. Human skin was slowly thawed, cut into 2 × 2 cm pieces, fixed in Teflon holders with 1-cm^2 circular permeation areas, and mounted into Franz cells epidermal side up. The acceptor compartment (15.9 ± 0.1 ml) was filled with phosphate-buffered saline at pH 7.4 with 0.005% gentamicin (PBS) and stirred at 32 °C throughout the experiment. The skin integrity was checked by electrical impedance (any skin sample with the impedance < 10 kΩ was excluded). Then, 100 µl of a donor sample (infinite dose) was applied to the skin and covered with a glass slide. Acceptor phase samples (300 µl) were collected at predetermined time intervals for 48 h, to reach steady-state and were replaced by the same volume of fresh PBS. […] The drug concentrations were measured by HPLC (see supplementary data).\nThe flux of the model drug through the skin Jss (µg/cm^2/h) was calculated from the linear region of this plot. The enhancement ratio (ER) was calculated as the ratio of flux with and without an enhancer.\nAfter the permeation experiment, the cells were dismounted, the skin was carefully washed with PBS, and the permeation area of the skin (1 cm^2) was punched off. After heating the skin fragments to 80 °C for 1 min, the epidermis (E) was peeled off the dermis (D), individually weighed and extracted by 1 and 2 ml, respectively, of an extraction solvent (identical to the mobile phase for the drug HPLC analysis, see supplementary data) for 24 h. The drug concentration was measured by HPLC (see supplementary data)."}, "[2]": {"details": "1% enhancer with 3% DC in 60% PG"}},
  "data": [
    {"compound": "CCCCCCCCCCCCOC(=O)C1CCCN1C(C)=O", "note": "(centres unmarked) [Pro2, N-acetyl proline dodecyl ester]", "values": [
      {"measurement": "IC50", "setting": "[1]", "result": "53.2 ± 3.19", "unit": "µM"},
      {"measurement": "IC50", "setting": "3T3 mouse fibroblasts", "result": "84.09 ± 0.49", "unit": "µM"},
      {"measurement": "CDERMIS, diclofenac concentration in dermis", "setting": "human skin", "result": "1.08 ± 0.09", "unit": "µg/mg"},
      {"measurement": "CEPIDERMIS, diclofenac concentration in epidermis", "setting": "human skin", "result": "7.16 ± 0.79", "unit": "µg/mg"}
    ]},
    {"compound": "CCCCCCCCCCCCOC(=O)C1CCCN1C(=O)CC", "note": "(centres unmarked) [Pro3]", "values": [
      {"measurement": "IC50", "setting": "[1]", "result": "32.7 ± 2.48", "unit": "µM"},
      {"measurement": "IC50", "setting": "3T3 mouse fibroblasts", "result": "57.2 ± 2.58", "unit": "µM"},
      {"measurement": "CDERMIS, diclofenac concentration in dermis", "setting": "human skin", "result": "1.54 ± 0.28", "unit": "µg/mg"},
      {"measurement": "CEPIDERMIS, diclofenac concentration in epidermis", "setting": "human skin", "result": "11.18 ± 2.39", "unit": "µg/mg"}
    ]},
    {"compound": "CCCCCCCCCCCCOC(=O)C1CCCN1C(=O)CCC", "note": "(centres unmarked) [Pro4]", "values": [
      {"measurement": "IC50", "setting": "[1]", "result": "33.2 ± 2.02", "unit": "µM"},
      {"measurement": "IC50", "setting": "3T3 mouse fibroblasts", "result": "56.8 ± 2.45", "unit": "µM"},
      {"measurement": "CDERMIS, diclofenac concentration in dermis", "setting": "human skin", "result": "1.71 ± 0.31", "unit": "µg/mg"},
      {"measurement": "CEPIDERMIS, diclofenac concentration in epidermis", "setting": "human skin", "result": "12.70 ± 2.71", "unit": "µg/mg"},
      {"measurement": "fold increase of DC retention in dermis over control", "setting": "human skin; [2]", "result": "fourfold"},
      {"measurement": "fold increase of DC retention in epidermis over control", "setting": "human skin; [2]", "result": 3, "unit": "fold"}
    ]}
  ]
}
